Test results: patent US20130131033A1, “PHARMACEUTICAL COMPOSITION FOR TREATMENT OF RESPIRATORY TRACT INFECTIONS” (priority 2010, published 2013)
In brackets after ≈: the same amount, converted by molar mass.

Experiments:
Format in all cases: cell-based
[1] = test system: Streptococcus pneumoniae (MTCC 2672); assay: Broth macrodilution method (MIC); conditions: MTCC2672, individual drug alone, read-out: MIC (μg/ml) against Streptococcus pneumoniae
Experimental: (§1) […] LABS PVT. LTD. at its pre-clinical facility based at Chennai by Study No.: AMOX-538-09. The study report was generated on 1Mar. 2010. The study was conducted as per the approved study protocol.
(§2) The test substances used were three formulations, Formulation I, Formulation II and Formulation III prepared in accordance with Example 1, Example 2 and Example 3 respectively. […] The preparations and the method of the study were as per the approved protocol.

[2] = test system: Streptococcus pyogenes (MTCC 442); assay: Broth macrodilution method (MIC); conditions: MTCC442, individual drug alone, read-out: MIC (μg/ml) against Streptococcus pyogenes
Experimental: as §1, §2

[3] = test system: Streptococcus pneumoniae (MTCC 2672); assay: Disc diffusion method (zone of inhibition)
Experimental: as §1, §2
(§3) The sensitivity of the test substances and the reference standards were interpreted as per the CLSI zone diameter interpretive standards shown in Table 3.

[4] = test system: Streptococcus pyogenes (MTCC 442); assay: Disc diffusion method (zone of inhibition)
Experimental: as §1, §2, §3

## CC1(C)S[C@@H]2[C@H](NC(=O)[C@H](N)c3ccc(O)cc3)C(=O)N2[C@H]1C(=O)O [Amoxycillin]
[1]
  MIC: 0.063 µg/mL (≈ 0.172 µM)
[2]
  MIC: 0.031 µg/mL (≈ 0.0848 µM)
[3]; 8 μg/disc
  Zone Diameter Range (mm) S. pneumoniae: 33-36 mm
[3]; 16 μg/disc
  Zone Diameter Range (mm) S. pneumoniae: 34-36 mm
[3]; 32 μg/disc
  Zone Diameter Range (mm) S. pneumoniae: 37-38 mm
[4]; 8 μg/disc
  Zone Diameter Range (mm) S. pyogenes: 32-33 mm
[4]; 16 μg/disc
  Zone Diameter Range (mm) S. pyogenes: 34-36 mm
[4]; 32 μg/disc
  Zone Diameter Range (mm) S. pyogenes: 37-39 mm
